Test results reported in patent US9732119B2, “Immunomodulators” (BRISTOL-MYERS SQUIBB COMPANY, priority 2014, dated 2017).
Positions of bridges follow the written chain, without caps; N, C: chain ends. Non-standard residues stand in square brackets, D forms with d. Residues, ends and D or L forms follow the SMILES beside them. Trp(1-CH2COOH) = N[C@@H](Cc1cn(CC(=O)O)c2ccccc12)C(=O)O; Phe(4-Cl) = N[C@@H](Cc1ccc(Cl)cc1)C(=O)O; Phe(4-F) = N[C@@H](Cc1ccc(F)cc1)C(=O)O; Phe(4-Me) = Cc1ccc(C[C@H](N)C(=O)O)cc1; Hyp = O=C(O)[C@@H]1C[C@@H](O)CN1; Aad = N[C@@H](CCCC(=O)O)C(=O)O; NMeNle = CCCC[C@H](NC)C(=O)O; dOrn = NCCC[C@@H](N)C(=O)O; Pip = O=C(O)[C@@H]1CCCCN1; NMeA = CN[C@@H](C)C(=O)O; Orn = NCCC[C@H](N)C(=O)O; Dab = NCC[C@H](N)C(=O)O; Dap = NC[C@H](N)C(=O)O

target: T1, PD-1-Ig binding to PD-L1-TVMV-His (PD-L1-His) (Homo sapiens, UniProt Q9NZQ7); experiment: PD-1/PD-L1 Homogenous Time-Resolved Fluorescence (HTRF) binding assay; conditions: PD-1-Ig (20 nM) / PD-L1-His (10 nM); numeric values
T1 construct: hPDL1(19-239)-TVMV-His; made in house; host or cells: HEK293T cells
T1 sequence (Q9NZQ7 with tags, fused parts or gaps): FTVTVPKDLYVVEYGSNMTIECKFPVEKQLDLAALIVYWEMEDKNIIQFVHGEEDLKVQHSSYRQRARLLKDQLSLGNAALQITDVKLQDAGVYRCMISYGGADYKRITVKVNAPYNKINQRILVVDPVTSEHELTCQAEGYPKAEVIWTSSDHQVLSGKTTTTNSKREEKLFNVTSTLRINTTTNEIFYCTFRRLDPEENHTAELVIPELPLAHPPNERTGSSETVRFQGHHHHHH
Excerpt: The ability of the macrocyclic peptides of the present disclosure to bind to PD-L1 was investigated using a PD-1/PD-L1 Homogenous Time-Resolved Fluorescence (HTRF) binding assay.
Homogenous Time-Resolved Fluorescence (HTRF) Assays of Binding of Soluble PD-1 to Soluble PD-L1. Soluble PD-1 and soluble PD-L1 refers to proteins with carboxyl-end truncations that remove the transmembrane-spanning regions and are fused to heterologous sequences, specifically the Fc portion of the human immunoglobuling G sequence (Ig) or the hexahistidine epitope tag (His). All binding studies were performed in an HTRF assay buffer consisting of dPBS supplemented with 0.1% (w/v) bovine serum albumin and 0.05% (v/v) Tween-20. For the PD-1-Ig/PD-L1-His binding assay, inhibitors were pre-incubated with PD-L1-His (10 nM final) for 15 m in 4 μl of assay buffer, followed by addition of PD-1-Ig (20 nM final) in 1 μl of assay buffer and further incubation for 15 m. PD-L1 fusion proteins from either human, cynomologous macaques, mouse, or other species were used. HTRF detection was achieved using europium crypate-labeled anti-Ig monoclonal antibody (1 nM final) and allophycocyanin (APC) labeled anti-His monoclonal antibody (20 nM final). Antibodies were diluted in HTRF detection buffer and 5 μl was dispensed on top of binding reaction. […] Additional binding assays were established between PD-1-Ig/PD-L2-His (20 and 5 nM, respectively), CD80-His/PD-L1-Ig (100 and 10 nM, respectively) and CD80-His/CTLA4-Ig (10 and 5 nM, respectively).
Recombinant Proteins. […] Human PD-L2-His (Sino Biologicals), CD80-His (Sino Biologicals), CTLA4-Ig (RnD Systems) were all obtained through commercial sources.

IC50, 5 nM:
CCCC[C@H]1C(=O)N(C)[C@@H](CCCC)C(=O)N[C@@H](CC(C)C)C(=O)N[C@H](C(N)=O)CNCC(=O)N[C@@H](Cc2ccc(F)cc2)C(=O)N2CCCC[C@H]2C(=O)N[C@@H](CC(=O)O)C(=O)N2CCC[C@H]2C(=O)N[C@@H](CCC(N)=O)C(=O)N[C@@H](CCC(N)=O)C(=O)N2C[C@H](O)C[C@H]2C(=O)N[C@@H](Cc2c[nH]c3ccccc23)C(=O)N[C@@H](CC(N)=O)C(=O)N[C@@H](Cc2cn(CC(=O)O)c3ccccc23)C(=O)N1C [Example 9041]

IC50, 16 nM:
CCCC[C@H]1C(=O)N(C)[C@@H](CCCC)C(=O)N[C@@H](CCC(=O)O)C(=O)N[C@H](C(=O)NCC(N)=O)CNCC(=O)N[C@@H](Cc2ccc(F)cc2)C(=O)N(C)[C@@H](C)C(=O)N[C@@H](CC(N)=O)C(=O)N2CCC[C@H]2C(=O)N[C@@H](CCC(N)=O)C(=O)N[C@@H](CCC(N)=O)C(=O)N2C[C@H](O)C[C@H]2C(=O)N[C@@H](Cc2c[nH]c3ccccc23)C(=O)N[C@@H](CC(N)=O)C(=O)N[C@@H](Cc2cn(CC(=O)O)c3ccccc23)C(=O)N1C [Example 9025]

same assay, conditions: PD-1-Ig (20 nM) / PD-L1-His (10 nM); range classes

IC50, 10 to 99 nM:
CCCC[C@H]1C(=O)N(C)[C@@H](CCCC)C(=O)N[C@@H](CC(C)C)C(=O)N[C@H](C(=O)NCC(N)=O)CNCC(=O)N[C@@H](Cc2ccc(F)cc2)C(=O)N(C)[C@@H](C)C(=O)N[C@@H](CC(N)=O)C(=O)N2CCC[C@H]2C(=O)N[C@@H](CCC(N)=O)C(=O)N[C@@H](CC(=O)O)C(=O)N2C[C@H](O)C[C@H]2C(=O)N[C@@H](Cc2c[nH]c3ccccc23)C(=O)N[C@@H](CC(N)=O)C(=O)N[C@@H](Cc2cn(CC(=O)O)c3ccccc23)C(=O)N1C [Example 9010]
CCCC[C@H]1C(=O)N(C)[C@@H](CCCC)C(=O)N[C@@H](CC(C)C)C(=O)N[C@H](C(N)=O)CNCC(=O)N[C@@H](Cc2ccc(OC)cc2)C(=O)N2CCCC[C@H]2C(=O)N[C@@H](CC(N)=O)C(=O)N2CCC[C@H]2C(=O)N[C@@H](CN)C(=O)N[C@@H](CC(C)C)C(=O)N2C[C@H](O)C[C@H]2C(=O)N[C@@H](Cc2c[nH]c3ccccc23)C(=O)N[C@@H](CCN)C(=O)N[C@@H](Cc2cn(CC(=O)O)c3ccccc23)C(=O)N1C [Example 1042]
CCCC[C@H]1C(=O)N(C)[C@@H](CCCC)C(=O)N[C@@H](CC(C)C)C(=O)NCCC[C@H](N)C(=O)N[C@@H](Cc2ccc(C)cc2)C(=O)N2CCCC[C@H]2C(=O)N[C@@H](CC(N)=O)C(=O)N2CCC[C@H]2C(=O)N[C@@H](CN)C(=O)N[C@@H](CC(C)C)C(=O)N2C[C@H](O)C[C@H]2C(=O)N[C@@H](Cc2c[nH]c3ccccc23)C(=O)N[C@@H](CCN)C(=O)N[C@@H](Cc2cn(CC(=O)O)c3ccccc23)C(=O)N1C [Example 10519] (H-[Orn][Phe(4-Me)][Pip]NP[Dap]L[Hyp]W[Dab][Trp(1-CH2COOH)][NMeNle][NMeNle]L; lactam 1-C)
CCCC[C@H]1C(=O)N(C)[C@@H](CCCC)C(=O)N[C@@H](CC(C)C)C(=O)N[C@H](C(=O)NCC(N)=O)CNCC(=O)N[C@@H](Cc2ccc(O)cc2)C(=O)N(C)[C@@H](C)C(=O)N[C@@H](CC(N)=O)C(=O)N2CCC[C@H]2C(=O)N[C@@H](Cc2cnc[nH]2)C(=O)N[C@@H](CC(C)C)C(=O)N2C[C@H](O)C[C@H]2C(=O)N[C@@H](Cc2c[nH]c3ccccc23)C(=O)NCC(=O)N[C@@H](Cc2c[nH]c3ccccc23)C(=O)N1C [Example 10026]

IC50, 1 to 9.9 nM:
CCCC[C@H]1C(=O)N(C)[C@@H](CCCC)C(=O)NC(CC(C)C)C(=O)N[C@H](C(=O)NCC(N)=O)CNCC(=O)N[C@@H](Cc2ccc(O)cc2)C(=O)N(C)[C@@H](C)C(=O)N[C@@H](CC(N)=O)C(=O)N2CCC[C@H]2C(=O)N[C@@H](CN)C(=O)N[C@@H](CC(C)C)C(=O)N2C[C@H](O)C[C@H]2C(=O)N[C@@H](Cc2c[nH]c3ccccc23)C(=O)N[C@@H](CCN)C(=O)N[C@@H](Cc2cn(CC(=O)O)c3ccccc23)C(=O)N1C (stereo partly drawn) [Example 1030]
CCCC[C@H]1C(=O)N(C)[C@@H](CCCC)C(=O)N[C@@H](CC(C)C)C(=O)NCCC[C@@H](N)C(=O)N[C@@H](Cc2ccc(OC)cc2)C(=O)N2CCCC[C@H]2C(=O)N[C@@H](CC(N)=O)C(=O)N2CCC[C@H]2C(=O)N[C@@H](CN)C(=O)N[C@@H](CCC(=O)O)C(=O)N2C[C@H](O)C[C@H]2C(=O)N[C@@H](Cc2c[nH]c3ccccc23)C(=O)N[C@@H](CCN)C(=O)N[C@@H](Cc2cn(CC(=O)O)c3ccccc23)C(=O)N1C [Example 10569] (H-[dOrn]Y(Me)[Pip]NP[Dap]E[Hyp]W[Dab][Trp(1-CH2COOH)][NMeNle][NMeNle]L; lactam 1-C)
CCCC[C@H]1C(=O)N(C)[C@@H](CCCC)C(=O)N[C@@H](CC(C)C)C(=O)NCCC[C@H](N)C(=O)N[C@@H](Cc2ccc(OC)cc2)C(=O)N2CCCC[C@H]2C(=O)N[C@@H](CC(N)=O)C(=O)N2CCC[C@H]2C(=O)N[C@@H](CN)C(=O)N[C@@H](CCC(=O)O)C(=O)N2C[C@H](O)C[C@H]2C(=O)N[C@@H](Cc2c[nH]c3ccccc23)C(=O)N[C@@H](CCN)C(=O)N[C@@H](Cc2cn(CC(=O)O)c3ccccc23)C(=O)N1C [Example 10551] (H-[Orn]Y(Me)[Pip]NP[Dap]E[Hyp]W[Dab][Trp(1-CH2COOH)][NMeNle][NMeNle]L; lactam 1-C)
CCCC[C@H]1C(=O)N(C)[C@@H](CCCC)C(=O)N[C@@H](CC(C)C)C(=O)N[C@H](C(N)=O)CCCC(=O)N[C@@H](Cc2ccc(Cl)cc2)C(=O)N2CCCC[C@H]2C(=O)N[C@@H](CC(N)=O)C(=O)N2CCC[C@H]2C(=O)N[C@@H](CN)C(=O)N[C@@H](CC(C)C)C(=O)N2C[C@H](O)C[C@H]2C(=O)N[C@@H](Cc2c[nH]c3ccccc23)C(=O)N[C@@H](CCN)C(=O)N[C@@H](Cc2cn(CC(=O)O)c3ccccc23)C(=O)N1C [Example 10534] ([Phe(4-Cl)][Pip]NP[Dap]L[Hyp]W[Dab][Trp(1-CH2COOH)][NMeNle][NMeNle]L[Aad]-NH2; lactam N-14)
CCCC[C@H]1C(=O)N(C)[C@@H](CCCC)C(=O)N[C@@H](CC(C)C)C(=O)N[C@H](C(N)=O)CCCC(=O)N[C@@H](Cc2ccc(F)cc2)C(=O)N2CCCC[C@H]2C(=O)N[C@@H](CC(N)=O)C(=O)N2CCC[C@H]2C(=O)N[C@@H](CN)C(=O)N[C@@H](CCC(=O)O)C(=O)N2C[C@H](O)C[C@H]2C(=O)N[C@@H](Cc2c[nH]c3ccccc23)C(=O)N[C@@H](CCN)C(=O)N[C@@H](Cc2cn(CC(=O)O)c3ccccc23)C(=O)N1C [Example 10532] ([Phe(4-F)][Pip]NP[Dap]E[Hyp]W[Dab][Trp(1-CH2COOH)][NMeNle][NMeNle]L[Aad]-NH2; lactam N-14)
CCCC[C@H]1C(=O)N(C)[C@@H](CCCC)C(=O)NC(CC(C)C)C(=O)N[C@H](C(=O)NCC(N)=O)CNCC(=O)N[C@@H](Cc2ccc(O)cc2)C(=O)N(C)[C@@H](C)C(=O)N[C@@H](CC(N)=O)C(=O)N2CCC[C@H]2C(=O)N[C@@H](CN)C(=O)N[C@@H](CC(C)C)C(=O)N2C[C@H](O)C[C@H]2C(=O)N[C@@H](Cc2c[nH]c3ccccc23)C(=O)N[C@@H](CCCCN)C(=O)N[C@@H](Cc2cn(CC(=O)O)c3ccccc23)C(=O)N1C (stereo partly drawn) [Example 1032]
CCCC[C@H]1C(=O)N(C)[C@@H](CCCC)C(=O)N[C@@H](CC(C)C)C(=O)N[C@H](C(N)=O)CNCC(=O)N[C@@H](Cc2ccc(F)cc2)C(=O)N2CCCC[C@H]2C(=O)N[C@@H](CC(N)=O)C(=O)N2CCC[C@H]2C(=O)N[C@@H](CCC(N)=O)C(=O)N[C@@H](CCC(N)=O)C(=O)N2C[C@H](O)C[C@H]2C(=O)N[C@@H](Cc2c[nH]c3ccccc23)C(=O)N[C@@H](CC(N)=O)C(=O)N[C@@H](Cc2cn(CC(=O)O)c3ccccc23)C(=O)N1C [Example 9033]
CCCC[C@H]1C(=O)N(C)[C@@H](CCCC)C(=O)N[C@@H](CC(C)C)C(=O)N[C@H](C(N)=O)CNCC(=O)N[C@@H](Cc2ccc(O)cc2)C(=O)N2CCCC[C@H]2C(=O)N[C@@H](CC(=O)O)C(=O)N2CCC[C@H]2C(=O)N[C@@H](CCC(N)=O)C(=O)N[C@@H](CC(C)C)C(=O)N2C[C@H](O)C[C@H]2C(=O)N[C@@H](Cc2c[nH]c3ccccc23)C(=O)N[C@@H](CC(N)=O)C(=O)N[C@@H](Cc2cn(CC(=O)O)c3ccccc23)C(=O)N1C [Example 9034]
CCCC[C@H]1C(=O)N(C)[C@@H](CCCC)C(=O)N[C@@H](CC(C)C)C(=O)N[C@H](C)C(=O)NCC(=O)N[C@@H](Cc2ccc(O)cc2)C(=O)N(C)[C@@H](C)C(=O)N[C@@H](CC(N)=O)C(=O)N2CCC[C@H]2C(=O)N[C@@H](CN)C(=O)N[C@@H](CC(C)C)C(=O)N2C[C@H](O)C[C@H]2C(=O)N[C@@H](Cc2c[nH]c3ccccc23)C(=O)N[C@@H](CCN)C(=O)N[C@@H](Cc2c[nH]c3ccccc23)C(=O)N1C [Example 5007] (cyclo([Dab]W[NMeNle][NMeNle]L[dA]GY[NMeA]NP[Dap]L[Hyp]W))
